Like-named read-outs stand apart in the source and are kept apart here.

Consider 26 compounds from patent publication US10870630B2, “Substituted bicyclic heteroaryl allosteric modulators of nicotinic acetylcholine receptors” (Merck Sharp & Dohme Corp., priority 2016, dated 2020).

The target of the test is human α7 nicotinic acetylcholine receptor (α7 nAChR) (Homo sapiens, UniProt P36544). The test is described as follows: Automated patch-clamp electrophysiology functional assay (Assay A). In kind it is cell-based. As to conditions: HEK cell line stably expressing human RIC-3 and human α7, IonFlux HT whole-cell population patch, 40 μM acetylcholine. As for the experimental part: The α7 nAChR positive allosteric modulator (PAM) activity of the present compounds may be tested using assays known in the art. The α7 nAChR PAMs described herein have activities in an automated patch-clamp electrophysiology functional assay as described in the examples. The assay was performed using the IonFlux HT in a whole-cell, population patch configuration. See Golden et al. Assay Drug Dev. Technol. (2011) 9:608-619. The compounds were assessed for their ability to modulate the function of the human […] nAChR stably expressed in a HEK cell line both in the presence, and in the absence of the natural 07 agonist acetylcholine. By performing a series of such measurements at different concentrations, the effective concentration of the α7 nAChR PAMs (EC50) was determined. See Spencer et al. Assay Drug Dev. Technol. (2012) 10:313-324.
Automated patch-clamp electrophysiology was performed using the IonFlux HT (Fluxion Biosciences Inc., San Francisco, Calif.) in the whole-cell, population patch configuration. Test compounds were assessed for their ability to modulate the function of the α7 nicotinic acetylcholine receptor both in the presence, and in the absence of the natural α7 agonist acetylcholine. A HEK cell line stably expressing both human RIC-3 and human α7 (PrecisION hnAChR α7/RIC-3, Eurofins Pharma, St. Charles, Mo.) was cultured in 175 cm^2 triple-layer tissue culture flasks to no more than 90% confluency in DMEM/F-12 growth media supplemented with 10% heat-inactivated fetal bovine serum, 1% non-essential amino acids, 0.625 μg/mL Puromycin, and 400 μg/mL Geneticin. Immediately prior to assay, cells were detached by first aspirating growth media, rinsing with Dulbecco's phosphate buffered saline, and then adding 10 mL of Accutase (Innovative Cell Technologies, San Diego, Calif.) to the flask and then incubating at 37° C. for 5 minutes. Detached cells were then recovered by the addition of 40 mL of CHO-serum-free media supplemented with 25 mM HEPES, and rocked gently in a 50 mL conical tube for 20 minutes prior to patch-clamp assay. After recovery, cells were pelleted by centrifugation at 1,000 RPM for 1 minute in a compact bench top centrifuge; recovery media was aspirated and cells were resuspended in external recording solution (150 mM NaCl, 5 mM KCl, 2 mM CaCl2, 1 mM MgCl2, 10 mM HEPES, 12 mM dextrose) to a density of 5.0×10^6 cells/mL. The cell suspension was added to the cell inlet wells on an IonFlux HT population patch plate which had previously been rinsed and primed with deionized H2O. Test compounds were serially diluted in DMSO and then resuspended to the final test concentration in external recording solution, with, or without 40 μM acetylcholine added to the external recording solution; test compounds were then transferred to the IonFlux HT population patch plate. Internal recording solution (110 mM TrisPO4, 28 mM TrisBase, 0.1 mM CaCl2, 2 mM MgCl2, 11 mM EGTA, 4 mM MgATP) was added to the internal recording solution inlet wells on the IonFlux HT patch plate previously loaded with cells and test compounds, and the plate loaded into the IonFlux HT instrument. A protocol was executed on the IonFlux HT to trap the cells, break into the cells, and establish the whole-cell recording configuration; cells were voltage-clamped at a holding potential of −60 mV for the duration of the experiment, all experiments were conducted at room temperature, and the IonFlux HT injection pressure was 8 psi for solution applications. Upon establishing the whole-cell configuration, external recording solution was perfused into the recording chambers for 120 seconds and then 40 μM acetylcholine was applied for 1 second and immediately washed off with external recording solution for 60 seconds. The 40 μM acetylcholine-evoked α7 current served as the current response to which subsequent test compound effects, in the presence, or in the absence of 40 μM acetylcholine would be quantified relative to. […]
(Patch clamp records ionic current or voltage across a cell membrane.)

Chain of human α7 nicotinic acetylcholine receptor (α7 nAChR) (P36544 23-502): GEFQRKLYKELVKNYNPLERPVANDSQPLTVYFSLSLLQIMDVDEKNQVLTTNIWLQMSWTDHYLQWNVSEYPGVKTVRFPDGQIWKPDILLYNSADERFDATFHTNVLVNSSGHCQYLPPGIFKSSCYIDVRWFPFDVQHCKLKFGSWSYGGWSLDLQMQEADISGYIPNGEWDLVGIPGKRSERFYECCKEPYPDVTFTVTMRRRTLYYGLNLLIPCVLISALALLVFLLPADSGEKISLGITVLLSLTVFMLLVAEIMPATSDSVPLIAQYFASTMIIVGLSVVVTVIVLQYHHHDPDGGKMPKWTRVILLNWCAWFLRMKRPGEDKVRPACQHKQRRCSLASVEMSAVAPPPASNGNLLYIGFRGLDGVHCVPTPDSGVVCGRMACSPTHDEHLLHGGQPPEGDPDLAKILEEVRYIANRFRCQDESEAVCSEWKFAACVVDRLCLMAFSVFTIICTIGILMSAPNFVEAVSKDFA

Consider `NS(=O)(=O)c1ccc([C@@H]2C[C@H]2c2ncc3ccccc3n2)cc1` [Example 3, 4-[(1R,2R)-2-(Quinazolin-2-yl)cyclopropyl]benzenesulfonamide], for which the EC50 reads like this: (read-out: α7 nAChR EC50) 370 nM; (read-out: α7 nAChR Potency) 100 to 500 nM.

Turning to `NS(=O)(=O)c1ccc(C2CC2c2cnn3ccccc23)cc1` (racemic) [Example E3, 4-(2-Pyrazolo[1,5-a]pyridin-3-ylcyclopropyl)benzenesulfonamide], the EC50 is 3500 nM (read-out: α7 nAChR EC50) and 500 to 5000 nM (read-out: α7 nAChR Potency).

For `CC1(C)[C@H](c2ccc(S(N)(=O)=O)cc2)[C@H]1c1ncc2c(n1)CCCC2` [Example 12, 4-[(R,3R)-2,2-Dimethyl-3-(5,6,7,8-tetrahydroquinazolin-2-yl)cyclopropyl]benzenesulfonamide], the EC50 (read-out: α7 nAChR EC50) was found to be 2500 nM and the EC50 (read-out: α7 nAChR Potency) was 500 to 5000 nM.

Regarding `CC1(C)[C@H](c2ccc(S(N)(=O)=O)cc2)[C@H]1c1cn2ncccc2n1` [Example 8, 4-((1R,3R)-3-(Imidazo[1,2-b]pyridazin-2-yl)-2,2-dimethylcyclopropyl)benzenesulfonamide], the EC50 reads like this: (read-out: α7 nAChR EC50) 3800 nM; (read-out: α7 nAChR Potency) 500 to 5000 nM.

`CC1(C)[C@H](c2ccc(S(N)(=O)=O)cc2)[C@H]1c1nc2cc(Cl)ccc2o1` [Example B6, 4-[(1R,3R)-3-(5-Chloro-1,3-benzoxazol-2-yl)-2,2-dimethyl-cyclopropyl]benzenesulfonamide]: the EC50 is 200 nM (read-out: α7 nAChR EC50) and 100 to 500 nM (read-out: α7 nAChR Potency).

For `CC1(C)[C@@H](c2ccc(S(N)(=O)=O)cc2)[C@@H]1c1nc2ccccc2s1` [Example 9], the EC50 runs as follows: (read-out: α7 nAChR EC50) 350 nM; (read-out: α7 nAChR Potency) 100 to 500 nM.

Consider `NS(=O)(=O)c1ccc(C2CC2c2cnc3cc(Cl)cnc3c2)cc1` (racemic) [Example E2, 4-[2-(7-Chloro-1,5-naphthyridin-3-yl)cyclopropyl]benzenesulfonamide], for which, where the note is “read-out: α7 nAChR Potency”, the EC50 lay in the range of 500 to 5000 nM.

`NS(=O)(=O)c1ccc([C@@H]2C[C@H]2c2nc3ccc(F)cc3o2)cc1` [Example A2, 4-[(1R,2R)-2-(6-Fluoro-1,3-benzoxazol-2-yl)cyclopropyl]benzenesulfonamide]: the EC50 is, setting by setting: (read-out: α7 nAChR EC50) 60 nM; (read-out: α7 nAChR Potency) not above 100 nM.

Consider `NS(=O)(=O)c1ccc([C@H]2[C@H](c3nc4ccccc4o3)C2(F)F)cc1` [Example A7, 4-[(1R,3R)-3-(1,3-Benzoxazol-2-yl)-2,2-difluoro-cyclopropyl]benzenesulfonamide], for which the EC50 runs as follows: (read-out: α7 nAChR EC50) 52 nM; (read-out: α7 nAChR Potency) not above 100 nM.

In the case of `CC1(C)[C@@H](c2ccc(S(N)(=O)=O)cc2)[C@@H]1c1nc2c(o1)CCCC2` [Example C3, 4-[(1S,3S)-2,2-Dimethyl-3-(4,5,6,7-tetrahydro-1,3-benzoxazol-2-yl)cyclopropyl]benzenesulfonamide], the EC50 by setting is: (read-out: α7 nAChR EC50) 120 nM; (read-out: α7 nAChR Potency) 100 to 500 nM.

With `CC1(C)[C@H](c2ccc(S(N)(=O)=O)cc2)[C@H]1c1nc2ccccc2s1` [Example B3, 4-[(1R,3R)-3-(1,3-Benzothiazol-2-yl)-2,2-dimethyl-cyclopropyl]benzenesulfonamide], the EC50 by setting is: (read-out: α7 nAChR EC50) 3400 nM; (read-out: α7 nAChR Potency) 500 to 5000 nM.

`NS(=O)(=O)c1ccc([C@H]2C[C@@H]2c2nc3ccccc3o2)cc1` [Example B4, 4-[(1S,2S)-2-(1,3-Benzoxazol-2-yl)cyclopropyl]benzenesulfonamide]: where the note is “read-out: α7 nAChR Potency”, the EC50 was 500 to 5000 nM.

For `NS(=O)(=O)c1ccc([C@H]2C[C@@H]2c2nc3ccc(F)cc3o2)cc1` [Example B7, 4-[(1 S,2S)-2-(6-Fluoro-1,3-benzoxazol-2-yl)cyclopropyl]benzenesulfonamide], the EC50 (read-out: α7 nAChR EC50) was 4200 nM and the EC50 (read-out: α7 nAChR Potency) was 500 to 5000 nM.

On to `CC1(C)[C@@H](c2ccc(S(N)(=O)=O)cc2)[C@@H]1c1nc2ccccc2o1` [Example A4, 4-[(1S,3S)-3-(1,3-Benzoxazol-2-yl)-2,2-dimethyl-cyclopropyl]benzenesulfonamide], for which the EC50 by setting is: (read-out: α7 nAChR EC50) 280 nM; (read-out: α7 nAChR Potency) 100 to 500 nM.

For `CN1CCOc2cc(C3CC3c3ccc(S(N)(=O)=O)cc3)cnc21` (racemic) [Example E13, 4-[2-(4-Methyl-2,3-dihydropyrido[3,2-b][1,4]oxazin-7-yl)cyclopropyl]benzenesulfonamide], the EC50 by setting is: (read-out: α7 nAChR EC50) 880 nM; (read-out: α7 nAChR Potency) 500 to 5000 nM.

In the case of `NS(=O)(=O)c1ccc(C2CC2c2cc3n(n2)CCCC3)cc1` (racemic) [Example E10, 4-[2-(4,5,6,7-Tetrahydropyrazolo[1,5-a]pyridin-2-yl)cyclopropyl]benzenesulfonamide], for the setting “read-out: α7 nAChR Potency”, the EC50 fell in the range of 5000 to 50000 nM.

For `NS(=O)(=O)c1ccc([C@@H]2[C@@H](c3nc4ccccc4s3)C2(F)F)cc1` [Example B12, 4-[(1S,3R)-3-(1,3-Benzothiazol-2-yl)-2,2-difluoro-cyclopropyl]benzenesulfonamide], the EC50 (read-out: α7 nAChR Potency) lay in the range of 100 to 500 nM.

As for `NS(=O)(=O)c1ccc([C@@H]2C[C@H]2c2nc3c(o2)CCCC3)cc1` [Example 4, 4-[(1R,2R)-2-(4,5,6,7-Tetrahydro-1,3-benzoxazol-2-yl)cyclopropyl]benzenesulfonamide], the EC50 reads like this: (read-out: α7 nAChR EC50) 610 nM; (read-out: α7 nAChR Potency) 500 to 5000 nM.

With `COc1ccc2oc([C@@H]3[C@@H](c4ccc(S(N)(=O)=O)cc4)C3(C)C)nc2c1` [Example B10, 4-[(1R,3R)-3-(5-Methoxy-1,3-benzoxazol-2-yl)-2,2-dimethyl-cyclopropyl]benzenesulfonamide], the EC50 runs as follows: (read-out: α7 nAChR EC50) 660 nM; (read-out: α7 nAChR Potency) 500 to 5000 nM.

On to `Cn1cc2ccc(C3CC3c3ccc(S(N)(=O)=O)cc3)cc2n1` (racemic) [Example E12, 4-[2-(2-Methylindazol-6-yl)cyclopropyl]benzenesulfonamide], for which the EC50 by setting is: (read-out: α7 nAChR EC50) 5000 nM; (read-out: α7 nAChR Potency) 500 to 5000 nM.

With `CC1(C)OC([C@@H]2[C@@H](c3ccc(S(N)(=O)=O)cc3)C2(F)F)=Nc2ccccc21` [Example D5, 4-[(1S,3S)-3-(4,4-Dimethyl-4H-3,1-benzoxazin-2-yl)-2,2-difluorocyclopropyl]benzenesulfonamide], the EC50 (read-out: α7 nAChR EC50) is 1100 nM and the EC50 (read-out: α7 nAChR Potency) is 500 to 5000 nM.

On to `CC1(C)[C@H](c2ccc(S(N)(=O)=O)cc2)[C@H]1c1nc2ccncc2o1` [Example D2, 4-[(1R,3R)-2,2-Dimethyl-3-oxazolo[5,4-c]pyridin-2-yl-cyclopropyl]benzenesulfonamide], for which the EC50 was 3400 nM (read-out: α7 nAChR EC50) and 500 to 5000 nM (read-out: α7 nAChR Potency).

On to `CC1(C)[C@@H](c2ccc(S(N)(=O)=O)cc2)[C@@H]1c1nc2ccc(F)cc2o1` [Example 2, 4-[(1S,3S)-3-(6-Fluoro-1,3-benzoxazol-2-yl)-2,2-dimethylcyclopropyl]benzenesulfonamide], for which the EC50 is, setting by setting: (read-out: α7 nAChR EC50) 71 nM; (read-out: α7 nAChR Potency) not above 100 nM.

As for `Cn1c([C@@H]2[C@@H](c3ccc(S(N)(=O)=O)cc3)C2(C)C)nc2cc(F)cc(F)c21` [Example D4, 4-[(1R,3R)-3-(5,7-Difluoro-1-methyl-benzimidazol-2-yl)-2,2-dimethyl-cyclopropyl]benzenesulfonamide], the EC50 (read-out: α7 nAChR Potency) was 5000 to 50000 nM.

Regarding `CC1(C)[C@H](c2ccc(S(N)(=O)=O)cc2)[C@H]1c1nc2c(F)cc(F)cc2s1` [Example B8, 4-[(1R,3R)-3-(4,6-Difluoro-1,3-benzothiazol-2-yl)-2,2-dimethyl-cyclopropyl]benzenesulfonamide], the EC50 (read-out: α7 nAChR Potency) is 100 to 500 nM.

On to `CC1(C)[C@H](c2ccc(S(N)(=O)=O)cc2)[C@H]1c1nc2ccc(F)cc2o1` [Example B2, 4-[(1R,3R)-3-(6-Fluoro-1,3-benzoxazol-2-yl)-2,2-dimethyl-cyclopropyl]benzenesulfonamide], for which the EC50 is, setting by setting: (read-out: α7 nAChR EC50) 300 nM; (read-out: α7 nAChR Potency) 100 to 500 nM.
